Measurements as given in US5336677A, “Substituted aminopyrimidines as antihypertensives” (American Home Products Corporation, priority 1992, dated 1994).
Counter-ions that a name gives are not always drawn.

target: angiotensin II receptor; experiment: rat adrenal receptor binding assay, displacement of radiolabeled angiotensin II (Inhibition of 125I Angiotensin II Binding); conditions: rat adrenal cortex membranes; 1 nM 125I-A II; 25° C.; 35 min
Procedure: The high affinity of the compounds for the angiotensin II receptor was established using a rat adrenal receptor binding assay, measuring the displacement of radiolabeled angiotensin II from the receptor, described as follows: Anesthetize male Sprague-Dawley rats (300-400 g body weight) with CO2 and sacrifice by cervical dislocation. Dissect adrenal glands and keep in ice-cold sucrose buffer. (0.2M sucrose, 1 mM EDTA, 10 mM Trizma base, pH=7.2). Remove medulla by squashing. Mince the cortex, rinse and homogenize in a chilled ground glass tissue grinder with 15 ml sucrose buffer. Centrifuge at 3000× g for 10 min. (Sorvall RCSC centrifuge, SS34 rotor 6200 rpm). Decant supernatant through gauze. Centrifuge combined supernatants at 12,000× g for 13 min. (Beckman ultracentrifuge, 80Ti rotor, 13,000 rpm). […] (Beckman ultracentrifuge, 80Ti rotor, 38,200 rpm). All steps are carried out at 4° C. Resuspend the pellet in 0.5 mL assay buffer (50 mM Tris HCI, 5 mM MgCl2, 0.2% BSA (protease-free), pH= 7.4, 25° C.). Store on ice. Determine membrane protein by Lowry or Bradford assay with BSA as standard. The binding assay is performed in triplicate, in 12×75 mm plastic test tubes or in 96-well plate (final volume of 0.25 mL). Add 140 μL assay buffer. […] Add 50 μL membrane suspension (e.g., 10 μg protein). Preincubate for 30 min at 25° C. […] Incubate for 35 min at 25° C. Stop the incubation by adding 1 mL ice-cold buffer (assay buffer without BSA). Filter with GF/C filters on cell harvester (filters are presoaked in the assay buffer containing 1% polyethyleneimine). Rinse assay tubes 3× with 5 mL cold buffer (assay buffer without BSA). Cut and deposit the filter discs into test tubes and count on gamma counter for 1 min. […] Calculate the quantities of hot A II and the cold A II needed and make the dilution. Aliquot, seal tight, and store frozen until needed. Calculate the concentration of the total A II (hot+cold) after dilution. On the day of assay, thaw the frozen aliquot and adjust the volume to give a concentration of 5 pmole/mL (or 0.25 pmole/50 μL) with assay buffer (+protease-free BSA).

SMILES | IC50
CCCc1c(C)nc(C(F)(F)F)nc1NCc1ccc(-c2ccccc2-c2nnn[nH]2)cc1 [Example 34, 6-Methyl-5-propyl-N-[[2'-(1H-tetrazol-5-yl)[1,1'-biphenyl]-4-yl]methyl]-2-(trifluoromethyl)-4-pyrimidinamine sodium salt hemihydrate] | 25 nM
Cc1nc(C(F)(F)F)nc(NCc2ccc(-c3ccccc3-c3nnn[nH]3)cc2)c1C(C)C [Example 35, 6-Methyl-5-(1-methylethyl)-N-[[2'-(1H-tetrazol-5-yl)[1,1'-biphenyl]-4-yl]methyl]-2-(trifluoromethyl)-4-pyrimidinamine sodium salt sesquihydrate] | 3 nM
CCc1cc(NCc2ccc(-c3ccccc3-c3nnn[nH]3)cc2)nc(C(F)(F)F)n1 [Example 36, 6-Ethyl-N-[[2'-(1H-tetrazol-5-yl)[1,1'-biphenyl]-4-yl]methyl]-2-(trifluoromethyl)-4-pyrimidinamine sodium salt sesquihydrate] | 5.6 nM
FC(F)(F)C(F)(F)c1cc(NCc2ccc(-c3ccccc3-c3nnn[nH]3)cc2)nc(C2CC2)n1 [Example 37, 2-Cyclopropyl-6-(pentafluoroethyl)-N-[[2'-(1H-tetrazol-5-yl)[1,1'-biphenyl]-4-yl]methyl]-4-pyrimidinamine hydrate] | 39 nM
CCc1cc(NCc2ccc(-c3ccccc3-c3nnn[nH]3)cc2)nc(C)n1 [Example 38, 6-Ethyl-2-methyl-N-[[2'-(1H-tetrazol-5-yl)[1,1'-biphenyl]-4-yl]methyl]-4-pyrimidinamine acetate trihydrate] | 7.8 nM
CCCc1cnc(C(F)(F)F)nc1NCc1ccc(-c2ccccc2-c2nnn[nH]2)cc1 [Example 39, 5-Propyl-N-[[2'-(1H-tetrazol-5-yl)[1,1'-biphenyl]-4-yl]methyl]-2-(trifluoromethyl)-4-pyrimidinamine sodium salt hydrate] | 49 nM
CCc1nc(C(F)(F)F)nc(NCc2ccc(-c3ccccc3-c3nnn[nH]3)cc2)c1C(C)C [Example 40, 6-Ethyl-5-(1-methylethyl)-N-[[2'-1H-tetrazol-5-yl)[1,1'-biphenyl]-4-yl]methyl]-2-(trifluoromethyl)-4-pyrimidinamine sodium salt] | 6.5 nM
Cc1cccc(Cc2c(NCc3ccc(-c4ccccc4-c4nnn[nH]4)cc3)nc(C)nc2C(F)(F)F)c1 [Example 42, 2-Methyl-5-[(3-methylphenyl)methyl]-N-[[2'-(1H-tetrazol-5-yl)[1,1'-biphenyl]-4-yl]methyl]-6-(trifluoromethyl)-4-pyrimidinamine sodium salt] | 41 nM
CCc1c(NCc2ccc(-c3ccccc3-c3nnn[nH]3)cc2)nc(C)nc1C(F)(F)C(F)(F)F [Example 43, 5-Ethyl-2-methyl-N-[[2'-(1H-tetrazol-5-yl)[1,1'-biphenyl]-4-yl]methyl]-6-(pentafluoroethyl)-4-pyrimidinamine sodium salt hydrate] | 11 nM
Cc1nc(NCc2ccc(-c3ccccc3-c3nnn[nH]3)cc2)c(C)c(C(F)(F)F)n1 [Example 44, 2,5-Dimethyl-N-[[2'-(1H-tetrazol-5-yl)[1,1'-biphenyl]-4-yl]methyl]-6-(trifluoromethyl)-4-pyrimidinamine hemihydrate] | 20 nM
Cc1nc(C(F)(F)F)nc(NCc2ccc(-c3ccccc3-c3nnn[nH]3)cc2)c1Cc1ccccc1 [Example 45, 6-Methyl-5-(phenylmethyl)-N-[[2'-(1H-tetrazol-5-yl)[1,1'-biphenyl]-4-yl]methyl]-2-(trifluoromethyl)-4-pyrimidinamine sodium salt hydrate] | 48 nM
CCCc1c(CC)nc(C(F)(F)F)nc1NCc1ccc(-c2ccccc2-c2nnn[nH]2)cc1 [Example 46, 6-Ethyl-5-propyl-N-[[2'-(1H-tetrazol-5-yl)[1,1'-biphenyl]-4-yl]methyl]-2-(trifluoromethyl)-4-pyrimidinamine sodium salt] | 2.5 nM
Cc1nc(NCc2ccc(-c3ccccc3-c3nnn[nH]3)cc2)cc(C(F)(F)C(F)(F)F)n1 [Example 47, 2-Methyl-6-(pentafluoroethyl)-N-[[2'-(1H-tetrazol-5-yl)[1,1'-biphenyl]-4-yl]methyl]-4-pyrimidinamine sodium salt hydrate] | 38 nM
Cc1nc(NCc2ccc(-c3ccccc3-c3nnn[nH]3)cc2)cc(C(F)(F)F)n1 [Example 48, 2-Methyl-N-[[2'-(1H-tetrazol-5-yl)[1,1'-biphenyl]-4-yl]methyl]-6-(trifluoromethyl)-4-pyrimidinamine hydrate] | 61 nM
Cc1nc(NCc2ccc(-c3ccccc3C(=O)O)cc2)cc(C(F)(F)C(F)(F)F)n1 [Example 50, 4'-[[[2-Methyl-6-(pentafluoroethyl)-4-pyrimidinyl]amino]methyl][1,1'-biphenyl]-2-carboxylic acid hemihydrate] | 330 nM
Cc1nc(NCc2ccc(-c3ccccc3C(=O)O)cc2)cc(C(F)(F)F)n1 [Example 51, 4'-[[[2-Methyl-6-(trifluoromethyl)-4-pyrimidinyl]amino]methyl][1,1'-biphenyl]-2-carboxylic acid sesquihydrate] | 850 nM
Cc1cc(NCc2ccc(-c3ccccc3C(=O)O)cc2)nc(C(F)(F)F)n1 [Example 52, 4'-[[[6-Methyl-2-(trifluoromethyl)-4-pyrimidinyl]amino]methyl][1,1'-biphenyl]-2-carboxylic acid] | 500 nM
C=CCc1c(C)nc(C)nc1NCc1ccc(-c2ccccc2-c2nnn[nH]2)cc1 [Example 53, 2,6-Dimethyl-5-(2-propenyl)-N-[(2'-(1H-tetrazol-5-yl)[1,1-biphenyl]-4-yl)methyl]-4-pyrimidinamine] | 7.5 nM
C=CCc1c(C)nc(C(F)(F)F)nc1NCc1ccc(-c2ccccc2-c2nnn[nH]2)cc1 [Example 54] | 16 nM
Cc1nc(C)c(Cc2cccs2)c(NCc2ccc(-c3ccccc3-c3nnn[nH]3)cc2)n1 [Example 55, 2,6-Dimethyl-5-(2-thienylmethyl)-N-[(2'-(1H-tetrazol-5-yl)[1,1-biphenyl]-4-yl)methyl]-4-pyrimidinamine] | 58 nM
Cc1nc(C)c(CC(=O)O)c(NCc2ccc(-c3ccccc3-c3nnn[nH]3)cc2)n1 [Example 56, [2,6-Dimethyl-N-[(2'-(1H-tetrazol-5-yl)[1,1-biphenyl]-4-yl)methyl]-4-pyrimidinamin-5-yl]acetic acid] | 200 nM
C#CCc1c(C)nc(C)nc1NCc1ccc(-c2ccccc2-c2nnn[nH]2)cc1 [Example 57, 2,6-Dimethyl-5-(2-propynyl)-N-[(2'-(1H-tetrazol-5-yl)[1,1-biphenyl]-4-yl)methyl]-4-pyrimidinamine] | 39 nM

tested on: A II-infused rat; experiment: A II-infused rat model, antihypertensive action; format: in vivo; conditions: 3 mg/kg id (duodenal); four hours post-administration; ganglion-blocked (mecamylamine), A II infusion 0.25 μg/kg/min
Procedure: In accordance with their ability to antagonize angiotensin II, the compounds of this invention show antihypertensive action in the following A II-infused rat model. Rats are anesthetized with Dial-Urethane (0.60 mL/kg, ip) and the trachea cannulated with PE 240. Either one femoral artery and both femoral veins or the carotid artery and the corresponding jugular vein are cannulated with PE 50. If the jugular vein is cannulated, two cannulas are placed in the one vein. The initial portion of the duodenum (just distal to the stomach) is cannulated with PE 50 via a small midline incision. Arterial pressure and heart rate are measured from the arterial cannula. Ten to 15 min are allowed following surgery for stabilization of arterial pressure. Ganglion blockade is then produced by intravenous administration of mecamylamine at 3 mg/kg (1 mL/kg of a 3 mg/mL solution). Ganglion blockade causes a fall in arterial pressure of about 50 mmHg. Mecamylamine is given every 90 min throughout the remainder of the experiment. An A II infusion is then begun into the other venous cannula at 0.25 μg/kg/min (at 9.6 u Vmin). The A II infusion returns arterial pressure to or slightly above the control level. Once arterial pressure has stabilized with the A II infusion, baseline values for mean arterial pressure (MAP) and heart rate are taken. […]

SMILES | lowering of the A II dependent blood pressure (average)
Cc1nc(NCc2ccc(-c3ccccc3-c3nnn[nH]3)cc2)cc(C(F)(F)C(F)(F)F)n1 [Example 47, 2-Methyl-6-(pentafluoroethyl)-N-[[2'-(1H-tetrazol-5-yl)[1,1'-biphenyl]-4-yl]methyl]-4-pyrimidinamine sodium salt hydrate] | 57%
